Test results: patent US20230257761A1, “HERBICIDE RESISTANT PLANT” (INSTITUTE OF GENETICS AND DEVELOPMENTAL BIOLOGY, CHINESE …, priority 2019, published 2023)

Assays:
Format in all cases: in vivo
[1] = test system: rice cultivar Zhonghua 11; test: Spraying of stems and leaves of regenerated T0 rice plants with Haloxyfop-P
Source text: According to the growth state of the regenerated plants, the T0 generation plants regenerated on the medium were placed in water for 5 to 30 days, and then the plant stems and leaves were directly sprayed with Haloxyfop-P, and the spray concentration range is between 0.1 and 2 times of the recommended concentration of commercial preparations. Four weeks after spraying, a total of 5 surviving mutants, ie, herbicide-resistant mutants, were obtained (FIG. 3).

[2] = test system: wheat (Triticum aestivum L.); test: Herbicide screening: imazapic added to wheat rooting medium
Procedure: The existing imazapic-resistant wheat plants were used as positive control, and wild-type wheat was used as negative control. Different concentrations of imazapic were added to the wheat rooting medium, and an appropriate screening concentration was found, that is, 1/15 of the concentration of imazapic used in the field.

[3] = test system: rice tissue culture seedlings; test: Spraying of rice tissue culture seedlings with HPPD herbicide; details: about two weeks after spraying, ⅛ of the field concentration; for leaves and growth of overexpressing positive rice seedlings: rice overexpressing HPPD protein; for leaves of wild-type rice tissue culture seedlings: wild-type rice without resistance
Procedure: The rice tissue culture seedlings overexpressing HPPD protein were used as the positive control, and the wild-type rice plants of the same stage and variety were used as the negative control. Each group of 8 plants was sprayed with different concentration gradients of herbicide: mesotrione or Topramezone. […] The herbicide concentration, that is, ⅛ of the field concentration of mesotrione or Topramezone, is a suitable screening concentration. The rice plants obtained in Example 2 were treated at this screening concentration to obtain herbicide-resistant plants

| SMILES | leaves and growth of overexpressing positive rice seedlings [3] | leaves of wild-type rice tissue culture seedlings [3] | further results |
| --- | --- | --- | --- |
| C[C@@H](Oc1ccc(Oc2ncc(C(F)(F)F)cc2Cl)cc1)C(=O)O [Haloxyfop-P] | – | – | number of surviving (herbicide-resistant) mutants ([1]; base-edited T0 plants, four weeks after spraying, 0.1 to 2 times the recommended concentration of commercial preparations): 5; state of heart leaves of wild-type rice after spraying ([1]; wild-type Zhonghua No. 11 (WT), FIG. 3): dry and dead |
| Cc1cnc(C2=NC(=O)C(C)(C(C)C)N2)c(C(=O)O)c1 (centres unmarked) [imazapic] | – | – | rooting of positive control wheat ([2]; existing imazapic-resistant (overexpression-positive) wheat, rooting medium with 1/15 of the field concentration of imazapic): grow roots normally; rooting of wild-type wheat ([2]; wild-type wheat (negative control), rooting medium with 1/15 of the concentration of imazapic used in the field): significantly inhibited |
| Cc1c(C(=O)c2cnn(C)c2O)ccc(S(C)(=O)=O)c1C1=NOCC1 [Topramezone] | normal and grew normally | turned white and then withered slowly | – |
| CS(=O)(=O)c1ccc(C(=O)C2C(=O)CCCC2=O)c([N+](=O)[O-])c1 [mesotrione] | normal and grew normally | turned white and then withered slowly | – |
